Test results as given in paper PMC12040169 (PLOS Biology, 2025).

Assay: in vitro
Conditions: human, hela cells, % viability

SMILES | viability at 28.5 h, 10 µM [%]
CCOC(=O)c1c(NC(=O)c2cc3ccccc3o2)sc2c1CCCC2 [CBK262552] | 84
O=C(NCCCN1CCOCC1)c1nn2c(C(F)(F)F)cc(-c3cccs3)nc2c1Cl [CBK262553] | 82
O=C(Nc1cc(Oc2cccnc2)cc([N+](=O)[O-])c1)c1cc2nc(-c3ccccc3)cc(-c3ccccc3)n2n1 [CBK262554] | 87.3
O=C(O)CCSc1nc2ccccc2n1CCOc1ccccc1 [CBK262555] | 95.9
O=C(c1sc2ccccc2c1Cl)N1CCN(CCN2C(=O)c3cccc4cccc(c34)C2=O)CC1 [CBK262557] | 99
Cc1c(Br)c(C(F)(F)F)nn1CC(=O)Nc1ccc(Oc2cc([N+](=O)[O-])cc([N+](=O)[O-])c2)cc1 [CBK262558] | 97.5
CC1(C)Cc2c(ccc3ccccc23)C(NCC(=O)O)=N1 [CBK262559] | 97.6
Cc1ccc(OCCn2c(SCCC(=O)O)nc3ccccc32)cc1 [CBK262561] | 84.7
N#CC1=C(N)n2c(s/c(=C\c3ccncc3)c2=O)=C(C#N)C1c1ccncc1 (stereo not drawn) [CBK262563] | 96
CCN=C(S)NNC(=O)CCn1c2ccccc2c2ccccc21 [CBK262564] | 93.8
Cc1ccccc1NC(=O)CC1c2ccccc2CC(C)(C)N1C (stereo not drawn) [CBK262567] | 87.4
CC1(C)Cc2c(ccc3ccccc23)C(NC(Cc2c[nH]c3ccccc23)C(=O)O)=N1 (stereo not drawn) [CBK262569] | 89.4
O=c1/c(=C/c2ccc(N3CCOCC3)cc2)sc2nc3cc(Br)cnc3n12 [CBK262574] | 86.9
CC(NC1=NC(C)(C)Cc2ccccc21)C(=O)O (stereo not drawn) [CBK262575] | 89
CC1=C(C(=O)OCc2ccccc2)C2(C(=O)Nc3ccccc32)C(C(=O)OCc2ccccc2)=C(N)O1 (stereo not drawn) [CBK262576] | 89.6
O=C(O)CCCN1C(=O)/C(=C/c2c[nH]c3ccccc23)SC1=S [CBK262580] | 119
O=C(O)c1nn2c(C(F)(F)F)cc(-c3cccs3)nc2c1Cl [CBK262581] | 95.4
COc1cc(/C=N/Nc2nc(Nc3ccccc3)nc(Nc3ccccc3)n2)ccc1O [CBK262584] | 84.9
CCCN1CCc2c(sc3nc(SCC(=O)c4ccccc4)n(-c4ccccc4)c(=O)c23)C1 [CBK262587] | 109
CCCOc1ccc(Cc2nnn[nH]2)cc1 [CBK262590] | 83.9
COc1ccc(C(=O)NNC(=O)c2cccc(O)c2)cc1 [CBK262594] | 118

SMILES | viability at 28.5 h, 10 µM [%]
CCCN1CCC(=NNC(=O)c2c[nH]c3ccccc23)CC1 [CBK262597] | 95.3
COC(=O)c1cn(C(=O)COc2ccc(Cl)cc2)c2ccccc12 [CBK262598] | 87
NC(=O)c1ccccc1NC(=O)COc1ccccc1 [CBK262599] | 85.1
O=C(Nc1ccc(O)cc1)c1ccc(N2C(=O)c3cccc([N+](=O)[O-])c3C2=O)cc1 [CBK262600] | 89.8
O=C(O)CCC(=O)Nc1ccc(Br)cc1C(=O)c1ccc(Cl)cc1 [CBK262601] | 86.7
O=C(NCCCN1CCOCC1)c1ccccc1Br [CBK262602C] | 106
COC(=O)c1c(NC(=O)C(Sc2ccccc2)c2ccccc2)sc2c1CCC(C(C)(C)C)C2 (stereo not drawn) [CBK262603] | 105
COC(=O)CNC(c1cc(Br)ccc1N)c1ccccc1Cl (stereo not drawn) [CBK262605] | 89
COc1cc(C(=O)NC(C)C(=O)NN)cc(OC)c1OC (stereo not drawn) [CBK262609] | 106
COc1ccccc1OCC(=O)NNC(=O)c1cnccn1 [CBK262617] | 109
C/C(CC(=O)Nc1ccc(C)cc1)=N\NC(=O)c1cccc(O)c1 [CBK262618] | 104
COc1ccc(OCC(=O)NNC(=O)c2cnccn2)cc1 [CBK262619] | 98.1
CC(=O)C1=C(C)NC(SCC(=O)c2ccc(C)cc2)=C(C#N)C1c1ccco1 (stereo not drawn) [CBK262623] | 109
CC(=O)C1=C(C)NC(SCC(=O)c2ccc(F)cc2)=C(C#N)C1c1sccc1C (stereo not drawn) [CBK262624] | 95.6
CC(C)N1CCC(=NNC(=O)c2cc(O)c(O)c(O)c2)CC1 [CBK262626] | 117
Cc1cc(NS(=O)(=O)c2ccc(NC(=O)c3cc(-c4ccc(C)o4)nc4ccccc34)cc2)nc(C)n1 [CBK262628] | 93.9
CCC1CCc2c(sc(NC(=O)c3cc(-c4ccc(C)cc4C)nc4ccccc34)c2C(=O)OC)C1 (stereo not drawn) [CBK262629] | 89.2
COc1cccc(-c2cc(C(=O)NCCCN3CCOCC3)c3ccccc3n2)c1 [CBK262630] | 91.7
NC(=O)c1c(NC(=O)/C=C/c2c(F)cccc2Cl)sc2c1CCCCCC2 [CBK262631] | 98.2
O=C(c1cc(-c2cccc(Br)c2)nc2ccccc12)N1CCN(C/C=C/c2ccccc2)CC1 [CBK262633] | 100
Cc1c(-c2ccc(Cl)cc2Cl)nc2ccccc2c1C(=O)NCCCc1ccccc1 [CBK262635] | 89.4

SMILES | viability at 28.5 h, 10 µM [%]
COC(=O)c1c(NC(=O)c2ccncc2)sc2c1CCC2 [CBK262637] | 88.1
O=C(c1ccc2c(c1)OCO2)N1CCN(C/C=C/c2ccccc2)CC1 [CBK262639] | 105
COc1cccc(-c2cc(C(=O)Nc3nnn[nH]3)c3ccccc3n2)c1 [CBK262640] | 98.6
O=C(O)CC(NS(=O)(=O)c1cccc([N+](=O)[O-])c1)c1ccccc1 (stereo not drawn) [CBK262641] | 96.4
Cc1cc(C)cc(NC(=O)C2C3C=CC(O3)C2C(=O)O)c1 (stereo not drawn) [CBK262642] | 95.3
COC(=O)c1c(NC(=O)c2c(C)c(-c3ccc(Cl)cc3Cl)nc3ccccc23)sc2c1CCC(C)C2 (stereo not drawn) [CBK262644] | 82.9
CCOC(=O)c1c(NC(=O)CCC(=O)O)sc2c1CCCCC2 [CBK262648] | 100
CCC1CCc2c(sc(NC(=O)c3cnccn3)c2C(N)=O)C1 (stereo not drawn) [CBK262649] | 105
COc1ccc(/C=C/C(=O)Nc2cc(S(N)(=O)=O)ccc2C)cc1 [CBK262651] | 102
CCOC(=O)c1c(NC(=O)c2cc(-c3ccc(Cl)s3)nc3ccccc23)sc(C)c1CC [CBK262657] | 107
O=c1c2c(nc(SCCc3ccccc3)n1CCc1ccccc1)-c1ccccc1CC21CCCCC1 [CBK262661] | 86.8
CC12CN3CC(C)(CN(C1)C3c1ccc(O)cc1)C2O (stereo not drawn) [CBK262663] | 107
Cc1cc(NN(Cc2ccccc2)Cc2ccccc2)n2c(nc3ccccc32)c1C#N [CBK262666] | 96.9
O=C1c2ccc(OCCOc3ccc4c(c3)C(=O)N(c3ccc(O)cc3)C4=O)cc2C(=O)N1c1ccc(O)cc1 [CBK262668] | 91.3
CC1=NN(c2ccc([N+](=O)[O-])cc2)C(=O)/C1=C/NCc1ccc(S(N)(=O)=O)cc1 [CBK262670] | 111
CC(NCCCN(C)C)=C1C(=O)c2ccccc2C1=O [CBK262674] | 81.6
CC(Nc1cccc2ccccc12)C(=O)N/N=C/c1ccc([N+](=O)[O-])cc1 (stereo not drawn) [CBK262676] | 84.2
COc1cc(Nc2cccc3c2C(=O)c2ccccc2C3=O)c(OC)cc1C=O [CBK262677] | 109
CC(Nc1cccc2ccccc12)C(=O)N/N=C/c1c(O)ccc2ccccc12 (stereo not drawn) [CBK262678] | 97.5
CCOc1ccc2c(c1)-c1c(ssc1=S)C(C)(C)N2C(=O)CSc1nnc[nH]1 [CBK262680] | 98.6
Cc1ccc2c(c1)-c1c(ssc1=S)C(C)(C)N2C(=O)COc1nc2ccccc2s1 [CBK262682] | 88

SMILES | viability at 28.5 h, 10 µM [%]
CCOC(=O)/C(C#N)=C(\O)c1ccc(N2C(=O)c3ccc(C(=O)O)cc3C2=O)cc1 [CBK262683] | 91.8
CCOc1ccc(-c2c3c(c(-c4ccccc4)n2-c2ccc(N)cc2)C(=O)c2ccccc2C3=O)cc1 [CBK262685] | 40
COc1cc(C2Nc3ccccc3-c3nc(SC)nnc3O2)ccc1OCC(=O)O (stereo not drawn) [CBK262687] | 94.3
CC(NCCN1CCOCC1)=C1C(=O)c2ccccc2C1=O [CBK262691] | 96.1
CC(NCc1ccc(S(N)(=O)=O)cc1)=C1C(=O)c2ccccc2C1=O [CBK262692] | 87
COc1cccc(NC(=O)C2CN(S(=O)(=O)c3ccccc3)CCN2S(=O)(=O)c2ccccc2)c1 (stereo not drawn) [CBK262694] | 85.9
Nc1ccc(-n2c(-c3ccccc3)c3c(c2-c2ccc(Cl)cc2)C(=O)c2ccccc2C3=O)cc1 [CBK262695] | 87.3
Cc1ccc2c(c1)N(C(=O)COc1nc3ccccc3s1)C(C)(C)c1ssc(=S)c1-2 [CBK262696] | 97.7
O=C(O)Cn1cc(I)c(=O)[nH]c1=O [CBK262698] | 98.6
O=C(CSc1nc2ccccc2c(=O)n1Cc1ccccc1)c1ccc(Br)cc1 [CBK262700] | 93.4
Nc1ncnc(NCCc2ccccc2)n1 [CBK262701] | 85
NC(=O)C[N+]1(CC#CC(O)(c2ccccc2)c2ccccc2)CCCC1 [CBK262703I] | 95.3
CNCCOCC(O)CSc1ccccc1 (stereo not drawn) [CBK262704] | 100
Cc1ccc(/N=N/N(CC(O)C(O)C(O)CO)c2ccc(C)c(C)c2)cc1C (stereo not drawn) [CBK262705] | 90
O=C(c1ccccc1)c1ccc2[nH]c(-c3ccc(NC(=O)c4ccccc4Cl)cc3)nc2c1 [CBK262706] | 83.7
CCOC(=O)CC1=C(C(=O)OCC)C(c2ccccc2C(F)(F)F)C(C#N)=C(N)O1 (stereo not drawn) [CBK262710] | 105
CS(=O)(=O)N(Cc1ccccc1)c1ccc(C(=O)N/N=C/c2ccccc2C(F)(F)F)cc1 [CBK262711] | 88
O=C(N/N=C/c1cccnc1)C1CCCN(S(=O)(=O)c2ccccc2)C1 (stereo not drawn) [CBK262712] | 91.5
Cc1cc(C)c(OCCNC(C)(C)C)c(Cl)c1 [CBK262713C] | 93.2
O=C(O)CC(Cc1ccc(Br)cc1)C(=O)Nc1ccccc1 (stereo not drawn) [CBK262714] | 96.2
COc1cccc(OC)c1OCCCN1CCCCC1 [CBK262719] | 97.7
